Experimental data taken from paper PMC6100082, “Pyridine-Ureas as Potential Anticancer Agents: Synthesis and In Vitro Biological Evaluation” (Molecules : A Journal of Synthetic Chemistry and Natural …, 2018).

What was measured:
Format in all cases: cell-based, human
NCI-H460 = test: NCI one-dose SRB assay (Non-Small Cell Lung Cancer); settings: for inhibition at 10 µM: Homo sapiens, NCI-H460, 10 μM, read-out: Percentage growth inhibition (GI%); for Growth Percent: NCI-H460, 1.00E-5 Molar
Procedure: (§1) The structures of all the newly prepared pyridine-ureas 8a–n were submitted to the National Cancer Institute (NCI) Developmental Therapeutic Program. Eight compounds 8b, 8d, 8e, 8i, 8j and 8l–n were selected to be examined for their in vitro growth inhibitory activity. The anticancer assays were carried out according to the protocol of the Drug Evaluation Branch, NCI, Bethesda. The selected pyridine-ureas were tested at one dose primary anticancer assay against a panel of approximately 58 cancer lines (concentration 10^−5 M). The tested human cancer cell lines emerged from nine different cancer subtypes: leukemia, colon, melanoma, ovarian, lung, CNS, renal, breast and prostate cancers. The sulforhodamine B (SRB) protein assay was adopted to estimate the cell viability and growth. The results were reported as mean-graph of the percentage growth of the treated cells, and presented as percentage growth inhibition (GI%) caused by the test compounds (Table 2).
(§2) The anticancer assays were performed in accordance with the protocol of the Drug Evaluation Branch, NCI, Bethesda. A 48 h drug exposure protocol was used and sulforhodamine B (SRB) protein assay was applied to estimate the cell viability and growth, as reported earlier.

NCI-H322M = test: as above; settings: for Growth Percent: 1.00E-5 Molar; for inhibition at 10 µM: Homo sapiens, read-out: Percentage growth inhibition (GI%)
Procedure: as §1, §2

NCI-H522 = test: as above; settings: for inhibition at 10 µM: Homo sapiens, NCI-H522, 10 μM, read-out: Percentage growth inhibition (GI%); for Growth Percent: NCI-H522, 1.00E-5 Molar
Procedure: as §1, §2

HOP-62 = test: as above; settings: for Growth Percent: HOP-62, 1.00E-5 Molar; for inhibition at 10 µM: Homo sapiens, HOP-62, 10 μM, read-out: Percentage growth inhibition (GI%)
Procedure: as §1, §2

A549/ATCC = test: as above; settings: for Growth Percent: 1.00E-5 Molar; for inhibition at 10 µM: Homo sapiens, read-out: Percentage growth inhibition (GI%)
Procedure: as §1, §2

EKVX = test: as above; settings: for Growth Percent: 1.00E-5 Molar; for inhibition at 10 µM: Homo sapiens, read-out: Percentage growth inhibition (GI%)
Procedure: as §1, §2

HOP-92 = test: as above; settings: for Growth Percent: HOP-92, 1.00E-5 Molar; for inhibition at 10 µM: Homo sapiens, HOP-92, 10 μM, read-out: Percentage growth inhibition (GI%)
Procedure: as §1, §2

NCI-H23 = test: as above; settings: for inhibition at 10 µM: Homo sapiens, NCI-H23, 10 μM, read-out: Percentage growth inhibition (GI%); for Growth Percent: NCI-H23, 1.00E-5 Molar
Procedure: as §1, §2

NCI-H226 = test: as above; settings: for inhibition at 10 µM: Homo sapiens, NCI-H226, 10 μM, read-out: Percentage growth inhibition (GI%); for Growth Percent: NCI-H226, 1.00E-5 Molar
Procedure: as §1, §2

HCC-2998 = test: NCI one-dose SRB assay (Colon Cancer); settings: for Growth Percent: HCC-2998, 1.00E-5 Molar; for inhibition at 10 µM: Homo sapiens, HCC-2998, 10 μM, read-out: Percentage growth inhibition (GI%)
Summary of the method: (§3)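 Single-dose screen at 10^−5 M over roughly 58 human cancer lines under the NCI protocol, with 48 h exposure. Growth estimated by sulforhodamine B protein staining and reported as percentage growth inhibition (GI%).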

HCT-116 = test: NCI one-dose SRB assay (Colon Cancer); settings: for Growth Percent: HCT-116, 1.00E-5 Molar; for inhibition at 10 µM: Homo sapiens, HCT-116, 10 μM, read-out: Percentage growth inhibition (GI%)
Summary of the method: as §3

COc1ccc(-c2ccc(NC(=O)Nc3cccc(C(F)(F)F)c3)c(C)n2)cc1OC [Compound 8i, 1-(6-(3,4-Dimethoxyphenyl)-2-methylpyridin-3-yl)-3-(3-(trifluoromethyl)phenyl) Urea]
inhibition at 10 µM (NCI-H460): 39%
Growth Percent (NCI-H460): 61.77%
Growth Percent (NCI-H322M): 92.59%
inhibition at 10 µM (NCI-H322M): < 10%
inhibition at 10 µM (NCI-H522): 60%
Growth Percent (NCI-H522): 40.25%
Growth Percent (HOP-62): 92.32%
inhibition at 10 µM (HOP-62): < 10%
Growth Percent (A549/ATCC): 60.26%
inhibition at 10 µM (A549/ATCC): 40%
Growth Percent (EKVX): 66.90%
inhibition at 10 µM (EKVX): 34%
Growth Percent (HOP-92): 55.33%
inhibition at 10 µM (HOP-92): 45%
inhibition at 10 µM (NCI-H23): 29%
Growth Percent (NCI-H23): 71.94%
inhibition at 10 µM (NCI-H226): 28%
Growth Percent (NCI-H226): 72.63%
Growth Percent (HCC-2998): 84.39%
inhibition at 10 µM (HCC-2998): 16%
Growth Percent (HCT-116): 17.63%
inhibition at 10 µM (HCT-116): 83%

COc1ccc(-c2ccc(NC(=O)Nc3cccc(Cl)c3)c(C)n2)cc1OC [Compound 8j, 1-(3-Chlorophenyl)-3-(6-(3,4-dimethoxyphenyl)-2-methylpyridin-3-yl) Urea]
inhibition at 10 µM (NCI-H460): 17%
Growth Percent (NCI-H460): 83.94%
Growth Percent (NCI-H322M): 85.92%
inhibition at 10 µM (NCI-H322M): 15%
inhibition at 10 µM (NCI-H522): 41%
Growth Percent (NCI-H522): 59.88%
Growth Percent (HOP-62): 77.77%
inhibition at 10 µM (HOP-62): 23%
Growth Percent (A549/ATCC): 61.64%
inhibition at 10 µM (A549/ATCC): 39%
Growth Percent (EKVX): 83.81%
inhibition at 10 µM (EKVX): 17%
Growth Percent (HOP-92): 60.18%
inhibition at 10 µM (HOP-92): 40%
inhibition at 10 µM (NCI-H23): 11%
Growth Percent (NCI-H23): 89.49%
inhibition at 10 µM (NCI-H226): < 10%
Growth Percent (NCI-H226): 91.65%
Growth Percent (HCC-2998): 88.09%
inhibition at 10 µM (HCC-2998): 12%
Growth Percent (HCT-116): 63.31%
inhibition at 10 µM (HCT-116): 37%

COc1cccc(NC(=O)Nc2ccc(-c3ccc(OC)c(OC)c3)nc2C)c1 [Compound 8m, 1-(6-(3,4-Dimethoxyphenyl)-2-methylpyridin-3-yl)-3-(3-methoxyphenyl) Urea]
inhibition at 10 µM (NCI-H460): < 10%
Growth Percent (NCI-H460): 102.12%
Growth Percent (NCI-H322M): 95.22%
inhibition at 10 µM (NCI-H322M): < 10%
inhibition at 10 µM (NCI-H522): 47%
Growth Percent (NCI-H522): 53.07%
Growth Percent (HOP-62): 94.75%
inhibition at 10 µM (HOP-62): < 10%
Growth Percent (A549/ATCC): 90.54%
inhibition at 10 µM (A549/ATCC): 10%
Growth Percent (EKVX): 100.68%
inhibition at 10 µM (EKVX): < 10%
Growth Percent (HOP-92): 81.00%
inhibition at 10 µM (HOP-92): 19%
inhibition at 10 µM (NCI-H23): 10%
Growth Percent (NCI-H23): 90.97%
inhibition at 10 µM (NCI-H226): < 10%
Growth Percent (NCI-H226): 94.44%
Growth Percent (HCC-2998): 97.15%
inhibition at 10 µM (HCC-2998): < 10%
Growth Percent (HCT-116): 78.84%
inhibition at 10 µM (HCT-116): 22%

COc1ccc(NC(=O)Nc2ccc(-c3ccc(OC)c(OC)c3)nc2C)cc1 [Compound 8n, 1-(6-(3,4-Dimethoxyphenyl)-2-methylpyridin-3-yl)-3-(4-methoxyphenyl) Urea]
inhibition at 10 µM (NCI-H460): 83%
Growth Percent (NCI-H460): 17.58%
Growth Percent (NCI-H322M): 86.96%
inhibition at 10 µM (NCI-H322M): 14%
inhibition at 10 µM (NCI-H522): 51%
Growth Percent (NCI-H522): 49.88%
Growth Percent (HOP-62): 56.53%
inhibition at 10 µM (HOP-62): 44%
Growth Percent (A549/ATCC): 57.02%
inhibition at 10 µM (A549/ATCC): 43%
Growth Percent (EKVX): 91.15%
inhibition at 10 µM (EKVX): < 10%
Growth Percent (HOP-92): 73.37%
inhibition at 10 µM (HOP-92): 27%
inhibition at 10 µM (NCI-H23): 33%
Growth Percent (NCI-H23): 67.43%
inhibition at 10 µM (NCI-H226): 42%
Growth Percent (NCI-H226): 58.04%
Growth Percent (HCC-2998): 83.10%
inhibition at 10 µM (HCC-2998): 17%
Growth Percent (HCT-116): 49.40%
inhibition at 10 µM (HCT-116): 51%
